Measurements reported in patent US20240390286A1, “PREPARATION OF PHARMACEUTICAL COMPOSITIONS USING SUPERCYCLE VAPOR PHASE DEPOSITION OF METAL OXIDES” (Applied Materials, Inc., priority 2023, published 2024).

What was measured:
Assay type in all cases: physicochemical
[1] = Particle size distribution by laser diffraction before and after coating
From the text: As shown in the table below, there is no significant change in particle size distribution after the coating process.

[2] = Indomethacin dissolution, pH 7.2 sodium phosphate buffer, USP2 apparatus (paddle); settings: 37° C., 100 rpm
Protocol: In some embodiments, the dissolution or drug release of the coated particles can be assessed by an in vitro release over time (dissolution) analysis. In some embodiments, the dissolution or drug release of the coated particles can be assessed by HPLC analysis. In some embodiments, the dissolution is assessed in methanol. In some embodiments, the dissolution is assessed in a sodium phosphate buffer solution (PBS) (e.g., pH 7.2, with or without surfactant) at 37° C., with a stirring of 100 revolutions per minute (RPM), for more than 1 minute, more than 2 minutes, more than 5 minutes, more than 10 minutes, more than 20 minutes, more than 30 minutes, more than 40 minutes, more than 50 minutes, more than 60 minutes, more than 120 minutes, more than 3 hours, more than 4 hours, more than 5 hours, more than 6 hours, more than 7 hours, more than 8 hours, more than 12 hours, more than 16 hours, more than 24 hours. In some embodiments, the coated particles have a reduced dissolution rate compared to uncoated drug particles. […]

[3] = Indomethacin dissolution, pH 7.2 PIPES buffer, USP4 apparatus (flow through); settings: 37° C., 16 ml/min
Protocol: FIG. 8 depicts the results of a study of indomethacin dissolution in pH 7.2 PIPES buffer solution in a USP4 dissolution apparatus (flow through) at 37° C. at a 16 ml/min flow rate. […] Again, the indomethacin release rates for AZO coated particles were in between that of ZnOx coated particles and that of AlOx coated particles. The release rate of AZO coated particles decreases as the Al/Zn ratio increases.

Q: For COc1ccc2c(c1)c(CC(=O)O)c(C)n2C(=O)c1ccc(Cl)cc1 [UC-m-IMC, indomethacin], which D10 ([1]; laser diffraction) is on record?
A: The D10 was 4.4 ± 0.4 μm.

Q: What about the D50 ([1]; laser diffraction) of the same molecule?
A: Its D50 is 13.3 ± 0.1 μm.

Q: And the D90 ([1]; laser diffraction)?
A: Its D90 is 24.5 ± 0.5 μm.

Q: What about the Span ([1]; laser diffraction size distribution) of the same molecule?
A: The Span was 1.5.

Q: And the indomethacin release profile [2]?
A: The indomethacin release profile was “immediate indomethacin release profile”.

Q: What about the indomethacin release profile [3] of the same molecule?
A: The indomethacin release profile was “immediate indomethacin release”.
